Measured values from US20240360122A1, “POLYMORPHIC FORMS AND SALTS OF A GLP-1R AGONIST” (Terns (Suzhou) Biotechnology Co., Ltd., priority 2023, published 2024).
“Also recorded” adds a separate entry of the source. Where a name gives a salt, the structure may show the parent alone. Read-outs that look alike come from different tables or passages of the source.

Legend:
Type in all cases: physicochemical
[1] = Solubility of Meglumine salt Type A in SGF and FaSSIF at 37° C. with adjusting pH to that of the blank medium; conditions: for solubility at 2 h / solubility at 4 h: read-out: S (solubility)
Protocol: Detailed procedures are as follows.
1) Added ˜40 mg of sample into a 5-mL glass vial. Add 4 mL of medium. Adjust pH to 1.8 or 6.5 using HCl (1 M) or NaOH (1 M).
2) Rolled at 37° C. (˜25 rpm). Sample at 1, 2, 4 and 24 hrs.
3) At each time-point, sample 0.8 mL of solution or suspension into a centrifuge tube prior to centrifugation (12000 rpm, 37° C., 5 min) and filtration through 0.45 μm PTFE membrane.
4) Adjusted pH of the rest of suspension to 1.8 or 6.5 using HCl (1 M) or NaOH (1 M).

[2] = pH solubility in pH 1.0-8.0 buffers at RT; conditions: thermodynamic from solid; for solubility: pH buffers, 2 and 24 hours
Protocol: The procedures were listed below:
1. […] Add 2 ml, of the corresponding medium.
2. Mixed well and stirred at RT (1000 rpm). Check the pH and adjust it back to the target pH after dosing.
3. Sampled after 2 hours and 24 hours. The supernatant was isolated by centrifugation (12000 rpm, 5 min) and filtration (0.22 μm, PTFE) for pH and HPLC test.

[3] = Slurry competition among Meglumine salt Type A/B/C; conditions: slurry competition in DMSO/EtOAc (1:6, v/v), RT and 50° C.
Protocol: The detailed procedures are as following:
Add 1 mL corresponding solvent.
2) Magnetically stir at RT or 50° C. for 1 day. Filter through 0.45 μm PTFE filter to obtain clear solution.
4) Magnetically stir at RT or 50° C. for 1 day. Test XRPD of the wet cake.

[4] = Approximate solubility in different solvents at RT
Protocol: For each experiment, approximately 2 mg of sample was added into a 3-mL glass vial. Corresponding solvents were then added stepwise (50/50/200/700/1000 μL) into the vials until the solids were dissolved visually or a total volume of 2 mL was reached. Solubility results summarized in Table 64 to Table 66 were used to guide the solvent selection in polymorph screening design.

[5] = Kinetic solubility in water and bio-relevant media (SGF, FaSSIF, FeSSIF) at 37° C.; conditions: for S: Solubility: calculated by freeform; for FC: Form change: residual solids by XRPD; for solubility at 2 h: highest solubility
Outline: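 Compound rolled at 37 °C (~25 rpm) in water, SGF (pH 1.8, NaCl, Triton X-100), FaSSIF (pH 6.5 phosphate, SIF powder) or FeSSIF (pH 5.0 acetate, SIF powder). Samples at 1, 2, 4 and 24 h were centrifuged and 0.45 μm-filtered; filtrate concentration and pH measured, residual solid checked by XRPD.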

[6] = pH 1.8, simulated gastric fluid, thermodynamic from solid, SGF, pH adjusted to 1.8, 37° C., read-out: solubility in SGF
[7] = pH 6.5, thermodynamic from solid, FaSSIF, pH adjusted to 6.5, 37° C., read-out: solubility in FaSSIF

## N#Cc1ccc(COc2cccc(C3CCN(Cc4nc5ccc(C(=O)O)cc5n4Cc4cncs4)CC3)n2)c(F)c1 [Meglumine salt Type A]
[1]; SGF, 37° C., pH adjusted to 1.8, 1 hr
  S (solubility): 730 µg/mL
[1]; pH 1.8, simulated gastric fluid, thermodynamic from solid, SGF, 37° C., pH adjusted to 1.8, 2 hrs
  solubility at 2 h: 160 µg/mL
[1]; pH 1.8, simulated gastric fluid, thermodynamic from solid, SGF, 37° C., pH adjusted to 1.8, 4 hrs
  solubility at 4 h: 120 µg/mL
[1]; [6]
  solubility at 1 h: 730 µg/mL
  solubility at 24 h: 140 µg/mL
[1]; pH 6.5, thermodynamic from solid, FaSSIF, 37° C., pH adjusted to 6.5, 2 hrs
  solubility at 2 h: 14 µg/mL
[1]; pH 6.5, thermodynamic from solid, FaSSIF, 37° C., pH adjusted to 6.5, 4 hrs
  solubility at 4 h: 11 µg/mL
[1]; [7]
  solubility at 1 h: 29 µg/mL
  solubility at 24 h: 6 µg/mL
[2]; pH 3.5 buffer, pH 3.5, aqueous buffer, LOQ = 0.0001 mg/mL
  solubility at 2 h: 21 µg/mL
[2]; pH 4.5 buffer, pH 4.5, aqueous buffer, LOQ = 0.0001 mg/mL
  solubility at 2 h: 3.7 µg/mL
[2]; pH 4.5 buffer, pH 4.5, aqueous buffer, 24 Hours, LOQ = 0.0001 mg/mL
  solubility at 24 h: 0.1 µg/mL
[2]; pH 5.5 buffer, pH 5.5, aqueous buffer, LOQ = 0.0001 mg/mL
  solubility at 2 h: 2.8 µg/mL
[2]; pH 1, aqueous buffer, pH 1.0 and 8.0 buffers
  solubility: 150 to 1300 µg/mL
[2]; pH 2, aqueous buffer, pH 2.0 and 6.8 buffers
  solubility: 16 to 200 µg/mL
[2]; pH 3.5, aqueous buffer, pH 3.5, 4.5 and 5.5 buffers
  solubility: ≤ 21 µg/mL
[3]
  thermodynamic stability relationship among Meglumine salt forms: thermodynamically more stable anhydrate; also recorded: more thermodynamically stable form; also recorded: thermodynamically more stable form
[4]; 2-MeTHF, RT
  Approximate solubility: S < 1.0 mg/mL
[4]; ACN, RT
  Approximate solubility: S < 1.0 mg/mL
[4]; Acetone, RT
  Approximate solubility: S < 1.1 mg/mL
[4]; Anisole, RT
  Approximate solubility: S < 1.1 mg/mL
[4]; CHCl3, RT
  Approximate solubility: S < 1.0 mg/mL
[4]; CPME, RT
  Approximate solubility: S < 1.0 mg/mL
[4]; DCM, RT
  Approximate solubility: S < 1.1 mg/mL
[4]; EtOAc, RT
  Approximate solubility: S < 1.1 mg/mL
[4]; H2O, RT
  Approximate solubility: S > 44.0 mg/mL
[4]; IPA, RT
  Approximate solubility: S < 1.1 mg/mL
[4]; IPAc, RT
  Approximate solubility: S < 1.0 mg/mL
[4]; MIBK, RT
  Approximate solubility: S < 1.0 mg/mL
[4]; MTBE, RT
  Approximate solubility: S < 1.0 mg/mL
[4]; THF, RT
  Approximate solubility: S < 1.1 mg/mL
[4]; Toluene, RT
  Approximate solubility: S < 1.2 mg/mL
[4]; n-Heptane, RT
  Approximate solubility: S < 1.0 mg/mL
[5]; FaSSIF, 37° C., 1 hr
  S: Solubility: 900 µg/mL
  FC: Form change: Yes
[5]; FaSSIF, 37° C., 2 hrs
  S: Solubility: 1300 µg/mL
  FC: Form change: Yes
[5]; FaSSIF, 37° C., 4 hrs
  S: Solubility: 720 µg/mL
  FC: Form change: Yes
[5]; FaSSIF, 37° C., 24 hrs
  S: Solubility: 70 µg/mL
  FC: Form change: Yes
[5]; FaSSIF, 37 °C, pH 6.5, fassif, thermodynamic from solid, FaSSIF, 37° C., read-out: solubility in FaSSIF
  solubility at 2 h: 1300 µg/mL
[5]; FeSSIF, 37° C., 1 hr
  S: Solubility: 170 µg/mL
  FC: Form change: Yes
[5]; FeSSIF, 37° C., 2 hrs
  S: Solubility: 170 µg/mL
  FC: Form change: Yes
[5]; FeSSIF, 37° C., 4 hrs
  S: Solubility: 86 µg/mL
  FC: Form change: Yes
[5]; FeSSIF, 37° C., 24 hrs
  S: Solubility: 27 µg/mL
  FC: Form change: Yes
[5]; H2O, 37° C., 1 hr
  S: Solubility: >8600 µg/mL
[5]; H2O, 37° C., 2 hrs
  S: Solubility: >8900 µg/mL
[5]; H2O, 37° C., 4 hrs
  S: Solubility: >8300 µg/mL
[5]; H2O, 37° C., 24 hrs
  S: Solubility: 7000 µg/mL
  FC: Form change: Yes
[5]; H2O, SGF and FaSSIF, 37° C.
  solubility compared with the other selected salts and Freeform Type C: higher solubility than other salts and Freeform Type C; also recorded: higher solubility in H2O, SGF and FaSSIF
[5]; SGF, 37° C., 1 hr
  S: Solubility: 380 µg/mL
  FC: Form change: Yes
[5]; SGF, 37° C., 2 hrs
  S: Solubility: 720 µg/mL
  FC: Form change: Yes
[5]; SGF, 37° C., 4 hrs
  S: Solubility: 680 µg/mL
  FC: Form change: Yes
[5]; SGF, 37° C., 24 hrs
  S: Solubility: 290 µg/mL
  FC: Form change: Yes
[5]; SGF, 37 °C, pH 1.8, simulated gastric fluid, thermodynamic from solid, SGF, 37° C., read-out: solubility in SGF
  solubility at 2 h: 720 µg/mL
[5]; all the media (H2O, SGF, FaSSIF, FeSSIF), after 24 hrs
  form change of residual solids (XRPD) after solubility test: form change was observed
[5]; in H2O, SGF and FaSSIF, comparison among selected salts and Freeform Type C
  Kinetic Solubility: 1) In H2O, SGF and FaSSIF, Meglumine salt Type A exhibited higher solubility than other salts and Freeform Type C;
[5]; water, 37 °C, thermodynamic from solid, H2O, at 1, 2 and 4 hrs
  solubility: > 8300 µg/mL
[5]; water, 37 °C, thermodynamic from solid, H2O, throughout the 24-hour process
  solubility: ≥ 7000 µg/mL
[5]; water, 37 °C, water, thermodynamic from solid, H2O, 37° C., at 24 hrs, read-out: solubility in H2O
  solubility at 24 h: 7000 µg/mL
